What was measured:
Format in all cases: in vivo
[1] = tested on: Stellaria media; experiment: Post-emergence herbicidal action against harmful plants; settings: 504 h, application rate 80 g/ha, assessed visually after about 3 weeks vs untreated controls, read-out: herbicidal action in percent (%)
Procedure: (§1) 2. Post-Emergence Herbicidal Action Against Harmful Plants Seeds of monocotyledonous and dicotyledonous weed and crop plants are placed in sandy loam in wood-fiber pots, covered with soil and cultivated in a greenhouse under good growth conditions. 2 to 3 weeks after sowing, the test plants are treated at the one-leaf stage. The inventive compounds formulated in the form of wettable powders (WP) or as emulsion concentrates (EC) are then sprayed onto the green parts of the plants as an aqueous suspension or emulsion at a water application rate of 600 to 800 l/ha (converted) with addition of 0.2% wetting agent. After the test plants have been left to stand in the greenhouse under optimal growth conditions for about 3 weeks, the action of the formulations is assessed visually in comparison to untreated controls (herbicidal action in percent (%): 100% activity=the plants have died, 0% activity=like control plants). Here, the compounds Nos. 1-001, 1-002, 1-004, 1-005, 1-007, 1-008, 1-014, 1-015, 1-017, 1-018, 1-020, 1-033, 1-040, 1-041, 1-043, 1-044, 1-046, 1-047, 1-053, 1-054, 1-056, 1-057, 1-059, 1-060, 1-079, 1-080, 1-082, 1-083, 1-086, 1-092, 1-093, 1-095, 1-096, 1-098, 1-099, 2-015, 3-014, 3-015, 3-017, 3-018, 3-020, 5-082, 5-095, 6-017, 7-017 and 8-014 each show, at an application rate of 80 g/ha, an activity of at least 80% against Abuthilon theophrasti, Amaranthus retroflexus and Stellaria media. The compounds Nos. 4-092, 4-093, 5-004, 5-017, 5-043 and 5-056 each show, at an application rate of 80 g/ha, an activity of at least 80% against Echinocloa crus galli, Pharbitis purpureum and Stellaria media.

[2] = tested on: Abuthilon theophrasti; experiment: as above; settings: 504 h, application rate 80 g/ha, assessed visually after about 3 weeks vs untreated controls, read-out: herbicidal action in percent (%)
Procedure: as §1

[3] = tested on: Amaranthus retroflexus; experiment: as above; settings: 504 h, application rate 80 g/ha, assessed visually after about 3 weeks vs untreated controls, read-out: herbicidal action in percent (%)
Procedure: as §1

[4] = tested on: Stellaria media; experiment: Pre-emergence herbicidal action against harmful plants; settings: 504 h, application rate 320 g/ha, assessed visually after 3 weeks vs untreated controls, read-out: herbicidal activity in percent (%)
Text: (§2) 1. Pre-Emergence Herbicidal Action Against Harmful Plants Seeds of monocotyledonous and dicotyledonous weed plants and crop plants are placed in wood-fiber pots in sandy loam and covered with soil. The compounds according to the invention, formulated in the form of wettable powders (WP) or as emulsion concentrates (EC), are then applied as aqueous suspension or emulsion at a water application rate of 600 to 800 l/ha (converted) with the addition of 0.2% of wetting agent to the surface of the covering soil. After the treatment, the pots are placed in a greenhouse and kept under good growth conditions for the test plants. The damage to the test plants is assessed visually after a test period of 3 weeks by comparison with untreated controls (herbicidal activity in percent (%): 100% activity=the plants have died, 0% activity=like control plants). Here, the compounds Nos. 1-002, 1-004, 1-007, 1-008, 1-043, 1-044, 1-046, 1-047, 1-060, 1-079, 1-080, 1-082, 1-083, 1-085, 1-095, 1-096, 1-098, 1-099, 1-059, 2-015, 3-015, 3-018, 3-020, 4-001, 4-118, 5-004, 5-017, 5-043, 5-056, 5-082, 5-095, 6-017, 7-017, 8-017 and 8-014, for example, each show, at an application rate of 320 g/ha, an activity of at least 80% against Abuthilon theophrasti and Amaranthus retroflexus. The compounds Nos. 1-001, 1-005, 1-014, 1-015, 1-017, 1-018, 1-020, 1-033, 1-040, 1-041, 1-053, 1-054, 1-056, 1-057, 1-092, 1-093, 3-014, 3-015, 8-014, 8-017 and 8-015 each show, at an application rate of 320 g/ha, an activity of at least 80% against Setaria viridis and Stellaria media. The compounds Nos. 3-017, 4-092 and 6-004 show, at an application rate of 320 g/ha, an activity of at least 80% against Amaranthus retroflexus and Veronica persica.

[5] = tested on: Setaria viridis; experiment: as above; settings: 504 h, application rate 320 g/ha, assessed visually after 3 weeks vs untreated controls, read-out: herbicidal activity in percent (%)
Text: as §2

[6] = tested on: Abuthilon theophrasti; experiment: as above; settings: 504 h, application rate 320 g/ha, assessed visually after 3 weeks vs untreated controls, read-out: herbicidal activity in percent (%)
Text: as §2

[7] = tested on: Amaranthus retroflexus; experiment: as above; settings: 504 h, application rate 320 g/ha, assessed visually after 3 weeks vs untreated controls, read-out: herbicidal activity in percent (%)
Text: as §2

CCO/N=C/c1c(Cl)ccc(C(=O)Nc2nnnn2CC)c1Cl [1-041]
≥ 80%: pest or weed control at 80 g/ha [1] | pest or weed control at 80 g/ha [2] | pest or weed control at 80 g/ha [3] | pest or weed control at 320 g/ha [4] | pest or weed control at 320 g/ha [5]

CCO/N=C/c1c(Cl)ccc(C(=O)Nc2nnnn2C)c1Cl [1-002]
≥ 80%: pest or weed control at 80 g/ha [1] | pest or weed control at 80 g/ha [2] | pest or weed control at 80 g/ha [3] | pest or weed control at 320 g/ha [6] | pest or weed control at 320 g/ha [7]

CC(C)=NOCc1c(Cl)ccc(C(=O)Nc2ncnn2C)c1Cl [6-004]
≥ 80%: pest or weed control at 320 g/ha [7]

CC(C)=NOCc1c(Cl)ccc(C(=O)Nc2nnnn2C)c1Cl [5-004]
≥ 80%: pest or weed control at 80 g/ha [1] | pest or weed control at 320 g/ha [6] | pest or weed control at 320 g/ha [7]

CC(C)=NOCc1c(S(C)(=O)=O)ccc(C(=O)Nc2nonc2C)c1Cl [7-017]
≥ 80%: pest or weed control at 80 g/ha [1] | pest or weed control at 80 g/ha [2] | pest or weed control at 80 g/ha [3] | pest or weed control at 320 g/ha [6] | pest or weed control at 320 g/ha [7]

CCO/N=C/c1c(S(C)(=O)=O)ccc(C(=O)Nc2ncnn2C)c1Cl [2-015]
≥ 80%: pest or weed control at 80 g/ha [1] | pest or weed control at 80 g/ha [2] | pest or weed control at 80 g/ha [3] | pest or weed control at 320 g/ha [6] | pest or weed control at 320 g/ha [7]

CC=NOCc1c(S(C)(=O)=O)ccc(C(=O)Nc2nnc(C)o2)c1Cl [8-015]
≥ 80%: pest or weed control at 320 g/ha [4] | pest or weed control at 320 g/ha [5]

CCCn1nnnc1NC(=O)c1ccc(Cl)c(CON=C(C)C)c1Cl [5-082]
≥ 80%: pest or weed control at 80 g/ha [1] | pest or weed control at 80 g/ha [2] | pest or weed control at 80 g/ha [3] | pest or weed control at 320 g/ha [6] | pest or weed control at 320 g/ha [7]

CCO/N=C/c1c(S(C)(=O)=O)ccc(C(=O)Nc2nnnn2CC)c1Cl [1-054]
≥ 80%: pest or weed control at 80 g/ha [1] | pest or weed control at 80 g/ha [2] | pest or weed control at 80 g/ha [3] | pest or weed control at 320 g/ha [4] | pest or weed control at 320 g/ha [5]

CCCn1nnnc1NC(=O)c1ccc(S(C)(=O)=O)c(/C=N/OCC)c1Cl [1-093]
≥ 80%: pest or weed control at 80 g/ha [1] | pest or weed control at 80 g/ha [2] | pest or weed control at 80 g/ha [3] | pest or weed control at 320 g/ha [4] | pest or weed control at 320 g/ha [5]

C#CCON=Cc1c(S(C)(=O)=O)ccc(C(=O)Nc2nnnn2CC)c1Cl [1-057, 2-chloro-N-(1-ethyl-1H-tetrazol-5-yl)-4-(methylsulfonyl)-3-{[(prop-2-yn-1-yloxy)imino]methyl}benzamide]
≥ 80%: pest or weed control at 80 g/ha [1] | pest or weed control at 80 g/ha [2] | pest or weed control at 80 g/ha [3] | pest or weed control at 320 g/ha [4] | pest or weed control at 320 g/ha [5]

CCCn1nnnc1NC(=O)c1ccc(S(C)(=O)=O)c(CON=C(C)C)c1Cl [5-095]
≥ 80%: pest or weed control at 80 g/ha [1] | pest or weed control at 80 g/ha [2] | pest or weed control at 80 g/ha [3] | pest or weed control at 320 g/ha [6] | pest or weed control at 320 g/ha [7]

CCn1nnnc1NC(=O)c1ccc(Cl)c(CON=C(C)C)c1Cl [5-043]
≥ 80%: pest or weed control at 80 g/ha [1] | pest or weed control at 320 g/ha [6] | pest or weed control at 320 g/ha [7]

From US8957096B2, “Herbicidally active oxime-ether-substituted benzoylamides” (Bayer Intellectual Property GmbH, priority 2011, dated 2015)
